Laboratory results published in patent US11230540B2, “Substituted triazole derivatives and uses thereof” (Bayer Pharma Aktiengesellschaft, priority 2017, dated 2022).
Where a name gives a salt, the structure may show the parent alone.

Legend:
[1] = biological target: T1, human V1a receptor (Homo sapiens, UniProt P37288); assay: Cellular in vitro assay for vasopressin receptor activity, V1a receptor cell line (aequorin luminescence); assay type: cell-based; conditions: for IC50: CHO cell line transfected with human V1a receptor, [Arg8]-vasopressin at EC50 concentration, read-out: IC50 hV1a; for ratio IC50 hV2/hV1a: selectivity ratio of the IC50 values hV2/hV1a
T1 construct: expressed in transfected cells; host or cells: CHO K1 (Chinese hamster ovary), also stably transfected with a modified aequorin
T1 sequence (P37288 whole entry): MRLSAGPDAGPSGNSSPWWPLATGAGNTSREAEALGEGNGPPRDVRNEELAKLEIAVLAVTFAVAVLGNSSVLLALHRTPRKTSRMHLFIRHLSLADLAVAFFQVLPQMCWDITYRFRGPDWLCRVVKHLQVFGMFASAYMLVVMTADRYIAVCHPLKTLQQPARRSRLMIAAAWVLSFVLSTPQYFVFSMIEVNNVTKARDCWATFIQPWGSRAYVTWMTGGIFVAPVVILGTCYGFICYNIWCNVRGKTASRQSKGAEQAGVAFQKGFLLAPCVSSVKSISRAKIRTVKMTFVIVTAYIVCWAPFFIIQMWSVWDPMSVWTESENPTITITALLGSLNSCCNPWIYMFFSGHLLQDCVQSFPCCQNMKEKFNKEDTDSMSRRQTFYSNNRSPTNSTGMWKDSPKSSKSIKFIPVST
Method: (§1) B-1. Cellular In Vitro Assay for Determining Vasopressin Receptor Activity
(§2) The identification of agonists and antagonists of the V1a and V2 vasopressin receptors from humans, rats and dogs as well as the quantification of the activity of the compounds of the invention is carried out using recombinant cell lines. These cell lines originally derive from a hamster's ovary epithelial cell (Chinese Hamster Ovary, CHO K1, ATCC: American Type Culture Collection, Manassas, Va. 20108, USA). The test cell lines constitutively express the human, rat or dog V1a or V2 receptors. In case of the […] V1a receptors, cells are also stably transfected with a modified form of the calcium-sensitive photoproteins aequorin (human and rat V1a) or obelin (dog V1a), which, after reconstitution with the cofactor coelenterazine, emit light when there are increases in free calcium concentrations [Rizzuto R, Simpson A W, Brini M, Pozzan T, Nature 358, 325-327 (1992); Illarionov B A, Bondar V S, Illarionova V A, Vysotski E S, Gene 153 (2), 273-274 (1995)]. The resulting vasopressin receptor cells react to stimulation of the recombinantly expressed V1a receptors by intracellular release of calcium ions, which can be quantified by the resulting photoprotein luminescence. The Gs-coupled V2 receptors are stably transfected into cell lines expressing the gene for firefly luciferase under control of a CRE-responsible promoter. Activation of V2 receptors induces the activation of the CRE-responsive promoter via cAMP increase, thereby inducing the expression of firefly luciferase. The light emitted by photoproteins of V1a cell lines as well as the light emitted by firefly luciferase of V2 cell lines corresponds to the activation or inhibition of the respective vasopressin receptor. The bioluminescence of the cell lines is detected using a suitable luminometer [Milligan G, Marshall F, Rees S, Trends in Pharmacological Sciences 17, 235-237 (1996)].
Vasopressin V1a Receptor Cell Lines:
On the day before the assay, the cells are plated out in culture medium (DMEM/F12, 2% FCS, 2 mM glutamine, 10 mM HEPES, 5 μg/ml coelenterazine) in 384-well microtiter plates and kept in a cell incubator (96% humidity, 5% v/v CO2, 37° C.). On the day of the assay, test compounds in various concentrations are placed for 10 minutes in the wells of the microtiter plate before the agonist [Arg^8]-vasopressin at EC50 concentration is added. The resulting light signal is measured immediately in a luminometer.
(§3) Table 1A below lists individual IC50 values for the compounds of the invention (including racemic mixtures as well as separated enantiomers) that were obtained from cell lines transfected with the human V1a or V2 receptor: […]

[2] = biological target: T2, human V2 receptor (Homo sapiens, UniProt P30518); assay: Cellular in vitro assay for vasopressin receptor activity, V2 receptor cell line (CRE-luciferase); assay type: cell-based; conditions: CHO cell line transfected with human V2 receptor; [Arg8]-vasopressin at EC50 concentration; read-out: IC50 hV2
T2 construct: expressed in transfected cells; host or cells: CHO K1 (Chinese hamster ovary) expressing firefly luciferase under a CRE-responsive promoter
T2 sequence (P30518 whole entry): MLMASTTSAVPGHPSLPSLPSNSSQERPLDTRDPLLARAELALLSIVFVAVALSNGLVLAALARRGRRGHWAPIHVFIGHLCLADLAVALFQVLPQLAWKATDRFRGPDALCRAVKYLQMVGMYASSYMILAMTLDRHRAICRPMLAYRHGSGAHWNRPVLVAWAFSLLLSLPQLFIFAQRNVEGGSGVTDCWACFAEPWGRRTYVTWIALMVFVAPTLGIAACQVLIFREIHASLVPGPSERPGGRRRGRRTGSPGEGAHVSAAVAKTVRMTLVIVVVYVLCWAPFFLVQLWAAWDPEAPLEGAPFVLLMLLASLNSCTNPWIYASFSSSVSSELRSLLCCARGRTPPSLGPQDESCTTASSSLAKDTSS
Method: as §1, §2
Vasopressin V2 Receptor Cell Lines:
On the day before the assay, the cells are plated out in culture medium (DMEM/F12, 2% FCS, 2 mM glutamine, 10 mM HEPES) in 384-well microtiter plates and kept in a cell incubator (96% humidity, 5% v/v CO2, 37° C.). On the day of the assay, test compounds in various concentrations and the agonist [Arg^8]-vasopressin at EC50 concentration are added together to the wells, and plates are incubated for 3 hours in a cell incubator. Upon addition of the cell lysis reagent Triton™ and the substrate luciferin, luminescence of firefly luciferase is measured in a luminometer.
as §3

Compound	IC50 [1]	ratio IC50 hV2/hV1a [1]	IC50 [2]
O=CN1CCC(NC(=O)c2nc(Cn3nc(-c4ccc(Cl)cc4)n(C[C@H](O)C(F)(F)F)c3=O)nn2-c2cnccc2Cl)C1 (mixture of isomers) [Example 13, 3-({3-(4-Chlorophenyl)-5-oxo-4-[(2S)-3,3,3-trifluoro-2-hydroxypropyl]-4,5-dihydro-1H-1,2,4-triazol-1-yl}methyl)-1-(4-chloropyridin-3-yl)-N-[1-formylpyrrolidin-3-yl]-1H-1,2,4-triazole-5-carboxamide]	1.5 nM	190.0	285 nM
O=CN1CCC(NC(=O)c2nc(Cn3nc(-c4ccc(Cl)cc4)n(C[C@H](O)C(F)(F)F)c3=O)nn2-c2cccnc2Cl)C1 (mixture of isomers) [Example 14, 3-({3-(4-Chlorophenyl)-5-oxo-4-[(2S)-3,3,3-trifluoro-2-hydroxypropyl]-4,5-dihydro-1H-1,2,4-triazol-1-yl}methyl)-1-(2-chloropyridin-3-yl)-N-[1-formylpyrrolidin-3-yl]-1H-1,2,4-triazole-5-carboxamide]	108 nM	2.9	315 nM
CC1(O)CCN(C(=O)c2nc(Cn3nc(-c4ccc(Cl)cc4)n(C[C@H](O)C(F)(F)F)c3=O)nn2CCC(F)(F)F)C1 (mixture of isomers) [Example 22, 5-(4-Chlorophenyl)-2-{[5-{[3-hydroxy-3-methylpyrrolidin-1-yl]carbonyl}-1-(3,3,3-trifluoropropyl)-1H-1,2,4-triazol-3-yl]methyl}-4-[(2S)-3,3,3-trifluoro-2-hydroxypropyl]-2,4-dihydro-3H-1,2,4-triazol-3-one]	290 nM	1.5	435 nM
O=C(c1nc(Cn2nc(-c3ccc(Cl)cc3)n(C[C@H](O)C(F)(F)F)c2=O)nn1CCC(F)(F)F)N1CCNC(C(F)(F)F)C1 (mixture of isomers) [Example 25, 5-(4-Chlorophenyl)-4-[(2S)-3,3,3-trifluoro-2-hydroxypropyl]-2-{[5-{[3-(trifluoromethyl)piperazin-1-yl]carbonyl}-1-(3,3,3-trifluoropropyl)-1H-1,2,4-triazol-3-yl]methyl}-2,4-dihydro-3H-1,2,4-triazol-3-one]	35 nM	4.9	170 nM
NC(CNC(=O)c1nc(Cn2nc(-c3ccc(Cl)cc3)n(C[C@H](O)C(F)(F)F)c2=O)nn1-c1ncccc1C(F)(F)F)C(F)(F)F (mixture of isomers) [Example 51, N-(2-Amino-3,3,3-trifluoropropyl)-3-({3-(4-chlorophenyl)-5-oxo-4-[(2S)-3,3,3-trifluoro-2-hydroxypropyl]-4,5-dihydro-1H-1,2,4-triazol-1-yl}methyl)-1-[3-(trifluoromethyl)pyridin-2-yl]-1H1,2,4-triazole-5-carboxamide hydrochloride]	135 nM	8.8	1190 nM
CC1(O)CCN(C(=O)c2nc(Cn3nc(-c4ccc(Cl)cc4)n(C[C@H](O)C(F)(F)F)c3=O)nn2CCC(F)(F)F)C1 (single isomer, unassigned) [Example 23]	285 nM	0.9	245 nM
CC1(O)CCN(C(=O)c2nc(Cn3nc(-c4ccc(Cl)cc4)n(C[C@H](O)C(F)(F)F)c3=O)nn2CCC(F)(F)F)C1 (single isomer, unassigned) [Example 24]	185 nM	1.6	300 nM
CC(C)(O)CNC(=O)c1nc(Cn2nc(-c3ccc(Cl)cc3)n(C[C@H](O)C(F)(F)F)c2=O)nn1-c1ncccc1OC(F)(F)F [Example 1, 3-({3-(4-Chlorophenyl)-5-oxo-4-[(2S)-3,3,3-trifluoro-2-hydroxypropyl]-4,5-dihydro-1H-1,2,4-triazol-1-yl}methyl)-N-(2-hydroxy-2-methylpropyl)-1-[3-(trifluoromethoxy)pyridin-2-yl]-1H1,2,4-triazole-5-carboxamide]	0.66 nM	124.2	82 nM
CC(C)(O)CNC(=O)c1nc(Cn2nc(-c3ccc(Cl)cc3)n(C[C@H](O)C(F)(F)F)c2=O)nn1-c1cnccc1Cl [Example 2, 3-({3-(4-Chlorophenyl)-5-oxo-4-[(2S)-3,3,3-trifluoro-2-hydroxypropyl]-4,5-dihydro-1H-1,2,4-triazol-1-yl}methyl)-1-(4-chloropyridin-3-yl)-N-(2-hydroxy-2-methylpropyl)-1H-1,2,4-triazole-5-carboxamide]	0.45 nM	51.7	23 nM
CC(C)(N)CNC(=O)c1nc(Cn2nc(-c3ccc(Cl)cc3)n(C[C@H](O)C(F)(F)F)c2=O)nn1-c1ncccc1OC(F)(F)F [Example 3, N-(2-Amino-2-methylpropyl)-3-({3-(4-chlorophenyl)-5-oxo-4-[(2S)-3,3,3-trifluoro-2-hydroxypropyl]-4,5-dihydro-1H-1,2,4-triazol-1-yl}methyl)-1-[3-(trifluoromethoxy)pyridin-2-yl]-1H-1,2,4-triazole-5-carboxamide]	0.83 nM	569.7	470 nM
CC(C)(N)CNC(=O)c1nc(Cn2nc(-c3ccc(Cl)cc3)n(C[C@H](O)C(F)(F)F)c2=O)nn1-c1cnccc1Cl [Example 4, N-(2-Amino-2-methylpropyl)-3-({3-(4-chlorophenyl)-5-oxo-4-[(2S)-3,3,3-trifluoro-2-hydroxypropyl]-4,5-dihydro-1H-1,2,4-triazol-1-yl}methyl)-1-(4-chloropyridin-3-yl)-1H-1,2,4-triazole-5-carboxamide]	0.49 nM	845.4	410 nM
CC1(O)CCN(C(=O)c2nc(Cn3nc(-c4ccc(Cl)cc4)n(C[C@H](O)C(F)(F)F)c3=O)nn2-c2ncccc2OC(F)(F)F)C1 (stereo partly drawn) [Example 5, 5-(4-Chlorophenyl)-2-[(5-[{3-hydroxy-3-methylpyrrolidin-1-yl]carbonyl}-1-[3-(trifluoromethoxy)pyridin-2-yl]-1H-1,2,4-triazol-3-yl)methyl]-4[(2S)-3,3,3-trifluoro-2-hydroxypropyl]-2,4-dihydro-3H-1,2,4-triazol-3-one]	10.3 nM	108.7	1130 nM
CC1(O)CCN(C(=O)c2nc(Cn3nc(-c4ccc(Cl)cc4)n(C[C@H](O)C(F)(F)F)c3=O)nn2-c2cnccc2Cl)C1 (stereo partly drawn) [Example 6]	2.45 nM	146.9	360 nM
CC1(CNC(=O)c2nc(Cn3nc(-c4ccc(Cl)cc4)n(C[C@H](O)C(F)(F)F)c3=O)nn2-c2ncccc2OC(F)(F)F)COC1 [Example 7, 3-({3-(4-Chlorophenyl)-5-oxo-4-[(2S)-3,3,3-trifluoro-2-hydroxypropyl]-4,5-dihydro-1H-1,2,4-triazol-1-yl}methyl)-N-[(3-methyloxetan-3-yl)methyl]-1-[3-(trifluoromethoxy)pyridin-2-yl]-1H1,2,4-triazole-5-carboxamide]	2.55 nM	131.4	335 nM
CC1(CNC(=O)c2nc(Cn3nc(-c4ccc(Cl)cc4)n(C[C@H](O)C(F)(F)F)c3=O)nn2-c2cnccc2Cl)COC1 [Example 8, 3-({3-(4-Chlorophenyl)-5-oxo-4-[(2S)-3,3,3-trifluoro-2-hydroxypropyl]-4,5-dihydro-1H-1,2,4-triazol-1-yl}methyl)-1-(4-chloropyridin-3-yl)-N-[(3-methyloxetan-3-yl)methyl]-1H-1,2,4-triazole-5-carboxamide]	0.68 nM	144.9	98.5 nM
